In patent US10961211B2, “Isotopically-stabilized tetronimide compounds” (Midwestern University, priority 2019, dated 2021):

Assay: LCMS analysis of deuterium/hydrogen exchange in solution
Format: physicochemical
Conditions: NMR sample in dmso-d6, standing at room temperature
Procedure: A sample of rac-1 (440 mg, 1.07 mmol) was stirred in THF (10 mL) in the presence of K2CO3 (645 mg, 4.69 mmol; 4.4 eq.) and D2O (1.77 g, 88.5 mmol; 82.6 eq.) at room temperature. The reaction progress was monitored by LCMS and Mass analysis. After 9 days a sample was taken and concentrated under reduced pressure to give 96-100% pure (LCMS, UV 215 and 254 nm respectively) racemic 1-d3 (38.9 mg) according to ^1H-NMR analysis. […] Calcd. for C18H11D3F3NO5S M: 416.39

NC1=C(OS(=O)(=O)Cc2ccccc2)C(=O)C(c2ccc(C(F)(F)F)cc2)O1 (racemic) [Compound 1-d3, 2-amino-4-oxo-5-(4-(trifluoromethyl)phenyl)-4,5-dihydrofuran-3-yl phenylmethanesulfonate]
deuterium/hydrogen exchange (isotopic stability): deuterium loss took place in dmso-d6
